Test results published in ChEMBL document CHEMBL3259674, “Structure-Activity Relationship of Semicarbazone EGA Furnishes Photoaffinity Inhibitors of Anthrax Toxin Cellular Entry” (ACS Med Chem Lett, 2014).
Activity calls are given as the source filed them. The rule behind the calls is not given here.

Key:
[1] = molecular target: T1, Antrax lethal toxin (Bacillus anthracis) (UniProt P15917+P13423); settings: RAW264.7, at 25 µM
[2] = molecular target: T1, Antrax lethal toxin (Bacillus anthracis); experiment: Reversible inhibition of Bacillus anthracis lethal toxin-induced mouse RAW264.7 cell death at 12.5 uM preincubated for 1 hr followed by compound washout measured 4 hrs post lethal toxin challenge; type: protein-complex assay
[3] = molecular target: T1, Antrax lethal toxin (Bacillus anthracis); experiment: Irreversible inhibition of Bacillus anthracis lethal toxin-induced mouse RAW264.7 cell death at 12.5 uM preincubated for 1 hr followed by UV irradiation measured after 5 mins; type: protein-complex assay
[4] = molecular target: T1, Antrax lethal toxin (Bacillus anthracis); experiment: Reversible inhibition of Bacillus anthracis lethal toxin-induced mouse RAW264.7 cell death at 25 uM preincubated for 1 hr followed by compound washout measured 4 hrs post lethal toxin challenge; type: protein-complex assay
[5] = molecular target: T1, Antrax lethal toxin (Bacillus anthracis); experiment: Irreversible inhibition of Bacillus anthracis lethal toxin-induced mouse RAW264.7 cell death at 25 uM preincubated for 1 hr followed by UV irradiation measured after 5 mins; type: protein-complex assay

SMILES | inhibition [1] | also measured
Cc1cccc(C)c1NC(=O)N/N=C/c1ccccc1 | inactive | 
Cc1ccccc1/C=N/NC(=O)Nc1c(C)cccc1C | inactive | 
COc1cccc(/C=N/NC(=O)Nc2c(C)cccc2C)c1OC | inactive | 
Cc1cccc(C)c1NC(=O)N/N=C/c1ccc(N=[N+]=[N-])cc1F |  | inhibition [2]: Active; inhibition [3]: inactive
Cc1ccc(NC(=O)N/N=C/c2ccc(Br)cc2)c(C)c1 | inactive | 
O=C(N/N=C/c1ccc(Cl)cc1)Nc1ccccc1 | inactive | 
COc1cc(OC)c(/C=N/NC(=O)Nc2c(C)cccc2C)c(OC)c1 | inactive | 
Cc1cccc(C)c1NC(=O)N/N=C/c1ccco1 | inactive | 
Cc1cccc(C)c1NC(=O)N/N=C/c1ccc(NS(C)(=O)=O)cc1 | inactive | 
CC(C)(C)NC(=O)N/N=C/c1ccc(Br)cc1 | inactive | 
Cc1cccc(C)c1NC(=S)N/N=C/c1c(F)cc(Br)cc1F | inactive | 
Cc1cccc(C)c1NC(=O)N/N=C/c1ccc(N=[N+]=[N-])cc1 |  | inhibition [4]: Active; inhibition [5]: Active
C#CCN(/N=C/c1ccc(N=[N+]=[N-])cc1)C(=O)Nc1c(C)cccc1C | inactive | 
Cc1cccc(C)c1NC(=O)NN | inactive | 
Cc1cccc(C)c1NC(=O)N/N=C/c1ccncc1 | inactive | 
Cc1cccc(C)c1NC(=S)N/N=C/c1ccc(Br)cc1F | inactive | 
Cc1cccc(C)c1NC(=O)N/N=C/c1c(F)c(F)c(N=[N+]=[N-])c(F)c1F |  | inhibition [4]: Active; inhibition [5]: Active
Cc1cccc(C)c1NC(=O)N/N=C/c1cccc(C(F)(F)F)c1Cl | inactive | 
